“Also recorded” adds a separate entry of the source.
Tests used:
[1] = system: TRPA1; experiment: TRPA1 activity, oocyte electrophysiology or agonist-induced fluorescence readout; type: cell-based; conditions: concentrations of up to 2 μM; data not shown
Source text: (§1) The formalin test is a complex in vivo model of pain where TRPV1’s function is more integrative than perceptive. In the mouse, intraplantar injections of formalin produce a biphasic behavioral reaction. The molecular mechanisms underlying formalin-induced pain are based on tissue damage, non-specific activation of nociceptors and direct activation of TRPA1 receptors (measured in phase I) that drive the local neurogenic inflammation and CNS sensitization (measured in phase 2). APHC1 and APHC3 were tested on TRPA1 for inhibitory/activation effects.

[2] = system: TRPV3; experiment: TRPV3 activity, oocyte electrophysiology or agonist-induced fluorescence readout; type: cell-based; conditions: concentrations of up to 2 μM; data not shown
[3] = system: CD-1 mice; experiment: capsaicin-induced acute pain test; type: in vivo, mouse; conditions: n = 9; for pain-related behavior after capsaicin, reduction: 0.1 mg/kg i.v. 15 min before intraplantar capsaicin (3 µg/10 µL), "~44% of response"; for pain-related behavior after capsaicin, in words: 0.1 mg/kg i.v., vs saline
Source text: Because capsaicin is a selective agonist of the TRPV1 receptor, we tested the efficacy of APHC1 and APHC3 as TRPV1 receptor antagonists using the capsaicin-induced pain model. Intraplantar injection of capsaicin evokes pain-related behavior such as licking and shaking the injected paw. TRPV1 knockout mice are insensitive to the capsaicin test and most antagonists that block capsaicin-induced currents in vitro also block capsaicin induced pain-related behavior in mice.
(§2) All experiments were performed in accordance with the recommendations in the “Principles of Laboratory Animal Care” and after approval by the Animal Care and Use Committee of the Branch of the IBCh RAS (Pushchino, Russia). Adult male CD-1 mice (Animal Breeding Facility Branch of Shemyakin-Ovchinnikov Institute of Bioorganic Chemistry, Russian Academy of Sciences, Pushchino, Russia) weighing 20–25 g were used. Animals were allowed to acclimate in the laboratory for at least five days. Mice were housed at room temperature (23 ± 2 °C) on a 12 h light–dark cycle with food and water available ad libitum. Polypeptides or vehicle was administered intravenously 15 min before testing.
(§3) The significance of the data was determined by analysis of variance (ANOVA) followed by Tukey’s test. Data are presented as mean ± S.E.
Intraplantar injection of capsaicin (3 µg/10 µL in 10% ethanol/90% saline) was used to elicit capsaicin-induced acute pain [36]. Immediately after the capsaicin injection, mice were placed inside glass cylinders for observation. Intraplantar injection of capsaicin evoked licking and shaking of the injected paw in mice. The duration of episodes of licking and paw shaking were recorded.

[4] = system: CD-1 mice; experiment: formalin test; type: in vivo, mouse; conditions: for formalin-induced response: 0.01 mg/kg; for inhibition of second phase of formalin test: 10.01–60 min; for effect on first phase of formalin test, in words / effect on second phase of formalin test, in words: vs saline
Source text: as §1, §2, §3
Formalin (10 μL 2% in saline) was injected intradermally into the left hind paw. […] This test produces a distinct biphasic response. The total duration of paw flinching during the early phase (0–10 min) and late phase (10.01–60 min) were summed.

[5] = system: CD-1 mice; experiment: CFA-induced thermal hyperalgesia; type: in vivo, mouse; conditions: i.v., n = 9; for reversal of CFA-induced thermal hyperalgesia: 0.1-0.01 mg/kg (dose of this value not stated), 24 h after CFA, 53 °C; for CFA-induced thermal hyperalgesia, in words: 0.1-0.01 mg/kg, vs saline
Source text: CFA-induced thermal hyperalgesia depends on TRPV1 activation; this was shown in TRPV1-deficient mice and using TRPV1 antagonists. CFA-induced thermal hyperalgesia is a complex process where different inflammatory pathways acting via several mechanisms lower the TRPV1 temperature threshold and influence thermal sensitivity. CFA-treated mice developed thermal hyperalgesia in the injected paw, this manifested as a decrease in the latency to paw withdrawal in response to thermal stimuli (Figure 4c).
as §2, §3
Complete Freund’s adjuvant suspended in an oil/saline (1:1) emulsion, was injected into the plantar surface of the left hind-paw of mice (20 μL/paw). Control mice received 20 μL of saline (i.pl.). Injected paw withdrawal latencies in response to thermal stimulation (53 °C) were measured 24 h after CFA injection.

[6] = system: CD-1 mice; experiment: core body temperature (rectal measuring); type: in vivo, mouse; conditions: for change in core body temperature: n = 7; for core body temperature, in words: rectal measuring, mice, vs saline
Experimental: Admittedly, hyperthermia is considered a critical side effect of TRPV1 antagonists, so we assessed the effect of the polypeptides on body temperature. Polypeptides were administered intravenously at doses 0.1 mg/kg and 0.5 mg/kg, and rectal temperature was monitored (Figure 5a,b).
as §2, §3
The MLT1404 Rectal Temperature Probe and Chart Power Lab (ADInstruments Inc., Colorado Springs, CO, USA) was used to record body temperature. During recording, the animals were placed in a MLA5018 Rodent Restrainer (ADInstruments Inc., Colorado Springs, CO, USA). The adaptation period was 20 min. Core body temperature was recorded every minute for 20 min before and 100 min after test compound administration. AMG9810 was dissolved in DMSO and was injected intraperitoneally.

[7] = system: CD-1 mice; experiment: pain models in vivo, overall; set-up: species or system mouse; conditions: i.v.
Experimental: as §2, §3

[8] = system: TRPV1-dependent normal and diabetic bladder smooth muscle contractility; conditions: ref [17]; cited from earlier work
Source text: (§4) Polypeptide molecules typically have a greater specific activity at a particular receptor than do small molecule agonists, which makes them attractive for researchers and pharmaceutical companies. We have previously reported the isolation of a polypeptide modulator of TRPV1 from a homogenized extract of the sea anemone Heteractis crispa named APHC1 and its partial in vivo characterization. Two homological polypeptides (APHC2 and APHC3) were subsequently found in the same extract, but their biological activity has not yet been properly characterized. APHC1 and APHC3 are weak ...

[9] = system: serine proteases; conditions: ref [14],[16]; cited from earlier work
Source text: as §4

Substance | agonistic/antagonistic activity at TRPA1 [1] | agonistic/antagonistic activity at TRPV3 [2] | pain-related behavior after capsaicin, reduction [3] | pain-related behavior after capsaicin, in words [3] | formalin-induced response [4] | attenuation of first phase of formalin test ([4]; 0.1 mg/kg i.v., 0–10 min, n = 9, "39% of response") | inhibition of second phase of formalin test ([4]; 0.1 mg/kg i.v., n = 9) | effect on first phase of formalin test, in words ([4]; 0.1 mg/kg i.v., n = 9) | effect on second phase of formalin test, in words ([4]; 0.1 mg/kg i.v., n = 9) | reversal of CFA-induced thermal hyperalgesia [5] | CFA-induced thermal hyperalgesia, in words [5] | change in core body temperature ([6]; 0.1 mg/kg i.v., in the 30 min after administration, stayed at this level) | change in core body temperature ([6]; 0.5 mg/kg i.v., at the end of data acquisition time) | core body temperature, in words [6] | doses with antinociceptive and analgesic activity in vivo [7] | modulation of TRPV1-dependent normal and diabetic bladder smooth muscle contractility [8] | inhibition of serine proteases [9] | change in core body temperature ([6]; 0.1 mg/kg i.v., 60 min after administration) | change in core body temperature ([6]; 0.5 mg/kg i.v., not statistically significant)
APHC1: polypeptide modulator of TRPV1 from sea anemone Heteractis crispa; homologous to BPTI/Kunitz type serine-protease inhibitors; produced recombinantly in E. coli (GSICLEPKVVGPCTAYFRRFYFDSETGKCTVFIYGGCEGNGNNFETLRACRAICRA; left off: TRX, end not stated, cleaved) | neither agonistic nor antagonistic activity | neither agonistic nor antagonistic activity | ~ 44% | significantly reduced the behavioral response to capsaicin; also recorded: significantly reduced pain-related behavior | no significant influence | 39% | 70% | significantly attenuated the first phase | significantly inhibited the second phase | ~ 80% | Dose dependent inhibition of CFA-induced thermal hyperalgesia; also recorded: significantly reduced thermal hyperalgesia; also recorded: clearly dose-dependent | −0.8 °C | −2.1 °C | did not cause hyperthermia; also recorded: significantly decreased core body temperature in both tested doses; also recorded: moderate decrease in core body temperature | 0.01 to 0.1 mg/kg | modulate | weak inhibitors | – | –
APHC3: polypeptide from Heteractis crispa highly homologous to APHC1, differing in four of 56 amino acids; produced recombinantly in E. coli (GSICLEPKVVGPCTAYFPRFYFNSETGKCTPFIYGGCEGNGNNFETLRACRGICRA; left off: TRX, end not stated, cleaved) | neither agonistic nor antagonistic activity | neither agonistic nor antagonistic activity | ~ 44% | significantly reduced the behavioral response to capsaicin; also recorded: significantly reduced pain-related behavior | no significant influence | – | 86% | did not affect the first phase of the response; also recorded: no significant effect on phase 1 | almost completely blocked phase 2; also recorded: significantly inhibited the second phase | 34% | Dose dependent inhibition of CFA-induced thermal hyperalgesia; also recorded: significantly reduced thermal hyperalgesia | – | – | did not cause hyperthermia; also recorded: modest hypothermic effect; also recorded: moderate decrease in core body temperature | 0.01 to 0.1 mg/kg | modulate | weak inhibitors | −0.6 °C | −0.4 °C

From publication PMC3877906, “Polypeptide Modulators of TRPV1 Produce Analgesia without Hyperthermia” (Marine Drugs, 2013)
